As usually defined, the IC50 is the midpoint of a concentration-inhibition curve.

T1 sequence (Q92633 whole entry): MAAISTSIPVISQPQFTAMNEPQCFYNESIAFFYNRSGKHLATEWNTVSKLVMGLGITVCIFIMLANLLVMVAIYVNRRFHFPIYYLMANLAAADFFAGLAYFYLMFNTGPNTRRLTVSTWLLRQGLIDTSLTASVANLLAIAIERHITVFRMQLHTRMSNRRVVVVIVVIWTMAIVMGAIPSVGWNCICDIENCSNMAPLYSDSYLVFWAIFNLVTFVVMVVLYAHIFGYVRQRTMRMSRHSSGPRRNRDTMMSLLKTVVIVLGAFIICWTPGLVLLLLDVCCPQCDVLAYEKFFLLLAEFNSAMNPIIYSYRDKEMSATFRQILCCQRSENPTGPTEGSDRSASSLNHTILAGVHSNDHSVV

This test has as its target T1, human LPA1 (Homo sapiens, UniProt Q92633).
T1 construct: the full-length cDNA for human LPA1 was obtained by PCR of the reverse transcription reaction; expressed in transfected cells
Put plainly: LPA1 calcium flux assay. The class given is cell-based. The settings on record: CHO cells expressing human LPA1, stimulated with 10 nM LPA; read-out: HLPA1 Ca Flux IC50. The method in brief:
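Antagonism measured as block of 10 nM LPA-evoked calcium rise in stable human LPA1-CHO cells. After overnight serum-free culture and 1 h dye loading at 37 °C (buffer with 0.3% fatty-acid-free albumin), compound was added for 30 min at room temperature. Titration curves gave IC50.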
On the technique in general: Calcium flux is commonly read through the fluorescence of an indicator in the cells.
For the molecule `Cc1onc(-c2ccc(-c3ccc(C4(CC(=O)O)CC4)cc3)cc2)c1CSCCc1ccccc1` [Compound 1-306, {1-[4′-(5-Methyl-4-phenethylsulfanylmethyl-isoxazol-3-yl)-biphenyl-4-yl]-cyclopropyl}-acetic acid], the IC50 is below 300 nM.

For `Cc1noc(-c2ccc(-c3ccc(C4(C(=O)O)CC4)cc3)cc2)c1C(O)COCc1ccccc1` (single isomer, unassigned) [Compound 1-199, 1-{4′-[4-(2-Benzyloxy-1-hydroxy-ethyl)-3-methyl-isoxazol-5-yl]-biphenyl-4-yl}-cyclopropanecarboxylic acid], the 50% inhibitory concentration (IC50) is below 300 nM.

Consider `CCOC(CCCc1ccccc1)c1c(C)noc1-c1ccc(-c2ccc(C3(C(=O)O)CC3)cc2)cc1` (stereo not drawn) [Compound 1-147, 1-{4′-[4-(1-Ethoxy-4-phenyl-butyl)-3-methyl-isoxazol-5-yl]-biphenyl-4-yl}-cyclopropanecarboxylic acid], for which the IC50 lay in the range of 300 to 1000 nM.

For `Cc1noc(-c2ccc(-c3ccc(C4(C(=O)O)CC4)cc3)cc2)c1CN(C)CC(C)c1ccccc1` (stereo not drawn) [Compound 1-87, 1-[4′-(3-Methyl-4-{[methyl-(2-phenyl-propyl)-amino]-methyl}-isoxazol-5-yl)-biphenyl-4-yl]-cyclopropanecarboxylic acid], the IC50 is below 300 nM.

For the molecule `Cc1noc(-c2ccc(-c3ccc(C4(C(=O)O)CC4)cc3)cc2)c1CCC(=O)N(C)Cc1ccccc1F` [Compound 1-44, 1-[4′-(4-{2-[(2-Fluoro-benzyl)-methyl-carbamoyl]-ethyl}-3-methyl-isoxazol-5-yl)-biphenyl-4-yl]-cyclopropanecarboxylic acid], the concentration for half-maximal inhibition (IC50) is below 300 nM.

Consider `Cc1noc(-c2ccc(-c3ccc(C4(C(=O)O)CC4)cc3)cc2)c1CC(=O)NC(C)c1ccccc1` (stereo not drawn) [Compound 1-33, 1-(4′-{3-Methyl-4-[(1-phenyl-ethylcarbamoyl)-methyl]-isoxazol-5-yl}-biphenyl-4-yl)-cyclopropanecarboxylic acid], for which the IC50 is below 300 nM.

`Cc1noc(-c2ccc(-c3ccc(C4(C(=O)O)CC4)cc3)cc2)c1NC(=O)CCc1ccccc1` [Compound 1-4, 1-{4′-[3-Methyl-4-(3-phenyl-propionylamino)-isoxazol-5-yl]-biphenyl-4-yl}-cyclopropanecarboxylic acid]: the IC50 lay within 1000 to 50000 nM.

With `Cc1noc(-c2ccc(-c3ccc(C4(C(=O)O)CC4)cc3)cc2)c1NC(=O)c1cccc(Br)c1` [Compound 1-292, 1-{4′-[4-(3-Bromo-benzoylamino)-3-methyl-isoxazol-5-yl]-biphenyl-4-yl}-cyclopropanecarboxylic acid], the IC50 fell in the range of 300 to 1000 nM.

With `Cc1noc(-c2ccc(-c3ccc(C4(C(=O)O)CC4)cc3)cc2)c1CCN(Cc1ccccc1)S(C)(=O)=O` [Compound 1-143, 1-(4′-{4-[2-(Benzyl-methanesulfonyl-amino)-ethyl]-3-methyl-isoxazol-5-yl}-biphenyl-4-yl)-cyclopropanecarboxylic acid], the IC50 is 1000 to 50000 nM.

As for `Cc1noc(-c2ccc(-c3ccc(C4(C(=O)O)CC4)cc3)cc2)c1CNC(=O)OCc1ccccc1` [Compound 1-57, 1-{4′-[4-(Benzyloxycarbonylamino-methyl)-3-methyl-isoxazol-5-yl]-biphenyl-4-yl}-cyclopropanecarboxylic acid], the IC50 was below 300 nM.

Take `Cc1noc(-c2ccc(-c3ccc(CC(=O)O)cc3)cc2)c1CS(=O)(=O)CCc1ccccc1` [Compound 1-109, {4′-[3-Methyl-4-(2-phenyl-ethanesulfonylmethyl)-isoxazol-5-yl]-biphenyl-4-yl}-acetic acid]: the IC50 is 1000 to 50000 nM.

For `Cc1noc(-c2ccc(-c3ccc(C4(C(=O)O)CC4)cc3)cc2)c1Nc1cccc(O)n1` [Compound 1-302, 1-{4′-[4-(6-Hydroxy-pyridin-2-ylamino)-3-methyl-isoxazol-5-yl]-biphenyl-4-yl}-cyclopropanecarboxylic acid], the IC50 was 1000 to 50000 nM.

In the case of `Cc1noc(-c2ccc(-c3ccc(C4(CC(=O)O)CC4)cc3)cc2)c1C(O)CCCCc1ccccc1` (stereo not drawn) [Compound 1-207, (1-{4′-[4-(1-Hydroxy-5-phenyl-pentyl)-3-methyl-isoxazol-5-yl]-biphenyl-4-yl}-cyclopropyl)-acetic acid], the IC50 is below 300 nM.

`Cc1noc(-c2ccc(-c3ccc(C4(C(=O)O)CC4)cc3)cc2)c1CCC(=O)N(C)CC1CC1` [Compound 1-119, 1-(4′-{4-[2-(Cyclopropylmethyl-methyl-carbamoyl)-ethyl]-3-methyl-isoxazol-5-yl}-biphenyl-4-yl)-cyclopropanecarboxylic acid]: the IC50 was 300 to 1000 nM.

In the case of `Cc1noc(-c2ccc(-c3ccc(C4(C(=O)O)CC4)cc3)cc2)c1CN(C)C(=O)C(C)Oc1ccccc1` (stereo not drawn) [Compound 1-72, 1-[4′-(3-Methyl-4-{[methyl-(2-phenoxy-propionyl)-amino]-methyl}-isoxazol-5-yl)-biphenyl-4-yl]-cyclopropanecarboxylic acid], the IC50 was below 300 nM.

For `Cc1noc(-c2ccc(-c3ccc([C@H]4C[C@H]4C(=O)O)cc3)cc2)c1C(O)CCCc1ccccc1` (relative stereo) [Compound 1-144, (cis)-2-{4′-[4-(1-Hydroxy-4-phenyl-butyl)-3-methyl-isoxazol-5-yl]-biphenyl-4-yl}-cyclopropanecarboxylic acid], the IC50 was below 300 nM.

With `Cc1noc(-c2ccc(-c3ccc(C4(C(=O)O)CC4)cc3)cc2)c1CCC(=O)N1CCCC1` [Compound 1-41, 1-{4′-[3-Methyl-4-(3-oxo-3-pyrrolidin-1-yl-propyl)-isoxazol-5-yl]-biphenyl-4-yl}-cyclopropanecarboxylic acid], the concentration for half-maximal inhibition (IC50) lay within 1000 to 50000 nM.

Take `Cc1noc(-c2ccc(-c3ccc(C4(C(=O)O)CC4)cc3)cc2)c1NC(C)C(O)Cc1ccccc1` (single isomer, unassigned) [Compound 1-283, 1-{4′-[4-(2-Hydroxy-1-methyl-3-phenyl-propylamino)-3-methyl-isoxazol-5-yl]-biphenyl-4-yl}-cyclopropanecarboxylic acid]: the IC50 was below 300 nM.

Take `Cc1noc(-c2ccc(-c3ccc(C4(C(=O)O)CC4)cc3)cc2)c1C=CC(C)Cc1ccc(C(C)C)cc1` (stereo not drawn) [Compound 1-111, 1-(4′-{4-[4-(4-Isopropyl-phenyl)-3-methyl-but-1-enyl]-3-methyl-isoxazol-5-yl}-biphenyl-4-yl)-cyclopropanecarboxylic acid]: the IC50 lay in the range of 1000 to 50000 nM.

Consider `Cc1noc(-c2ccc(-c3ccc(C4(C(=O)O)CC4)cc3)cc2)c1CCC(=O)NC(C)(C)c1ccccc1` [Compound 1-106, 1-(4′-{3-Methyl-4-[2-(1-methyl-1-phenyl-ethylcarbamoyl)-ethyl]-isoxazol-5-yl}-biphenyl-4-yl)-cyclopropanecarboxylic acid], for which the IC50 lay in the range of 1000 to 50000 nM.

Turning to `Cc1noc(-c2ccc(-c3ccc(C4(C(=O)O)CC4)cc3)cc2)c1COCc1ccccc1` [Compound 1-45, 1-[4′-(4-Benzyloxymethyl-3-methyl-isoxazol-5-yl)-biphenyl-4-yl]-cyclopropanecarboxylic acid], the IC50 was 1000 to 50000 nM.

As for `Cc1noc(-c2ccc(-c3ccc(C4(C(=O)O)CC4)cc3)cc2)c1CSCC(=O)c1ccccc1` [Compound 1-120, 1-{4′-[3-Methyl-4-(2-oxo-2-phenyl-ethylsulfanylmethyl)-isoxazol-5-yl]-biphenyl-4-yl}-cyclopropanecarboxylic acid], the IC50 is 1000 to 50000 nM.

As for `Cc1noc(-c2ccc(-c3ccc([C@H]4C[C@H]4C(=O)O)cc3)cc2)c1CSCCc1ccccc1` (single isomer, unassigned) [Compound 1-150, (cis)-2-[4′-(3-Methyl-4-phenethylsulfanylmethyl-isoxazol-5-yl)-biphenyl-4-yl]-cyclopropanecarboxylic acid], the IC50 lay in the range of 1000 to 50000 nM.

Turning to `CC(=O)N(CCc1c(C)noc1-c1ccc(-c2ccc(C3(C(=O)O)CC3)cc2)cc1)Cc1ccccc1` [Compound 1-142, 1-(4′-{4-[2-(Acetyl-benzyl-amino)-ethyl]-3-methyl-isoxazol-5-yl}-biphenyl-4-yl)-cyclopropanecarboxylic acid], the IC50 lay in the range of 1000 to 50000 nM.

Regarding `Cc1noc(-c2ccc(-c3ccc(C4(C(=O)O)CC4)cc3)cc2)c1CCNC(=O)c1ccccc1` [Compound 1-36, 1-{4′-[4-(2-Benzoylamino-ethyl)-3-methyl-isoxazol-5-yl]-biphenyl-4-yl}-cyclopropanecarboxylic acid], the IC50 fell in the range of 1000 to 50000 nM.

Regarding `Cc1noc(-c2ccc(-c3ccc([C@@H]4C[C@H]4C(=O)O)cc3)cc2)c1/C=C/CCc1ccccc1` (relative stereo) [Compound 1-128, (trans)-2-{4′-[3-Methyl-4-(4-phenyl-but-1-enyl)-isoxazol-5-yl]-biphenyl-4-yl}-cyclopropanecarboxylic acid], the IC50 lay within 1000 to 50000 nM.

Turning to `Cc1noc(-c2ccc(-c3ccc(C4(C(=O)O)CC4)cc3)cc2)c1NC(C)CCc1ccccc1` (single isomer, unassigned) [Compound 1-220, 1-{4′-[3-Methyl-4-(1-methyl-3-phenyl-propylamino)-isoxazol-5-yl]-biphenyl-4-yl}-cyclopropanecarboxylic acid], the IC50 was below 300 nM.

In the case of `CCCC(O)c1c(C)noc1-c1ccc(-c2ccc(C3(C(=O)O)CC3)cc2)cc1` (stereo not drawn) [Compound 1-166, 1-{4′-[4-(1-Hydroxy-butyl)-3-methyl-isoxazol-5-yl]-biphenyl-4-yl}-cyclopropanecarboxylic acid], the IC50 lay within 1000 to 50000 nM.

Take `Cc1noc(-c2ccc(-c3ccc(C4(C(=O)O)CC4)cc3)cc2)c1C(O)COCc1ccccc1` (single isomer, unassigned) [Compound 1-198, 1-{4′-[4-(2-Benzyloxy-1-hydroxy-ethyl)-3-methyl-isoxazol-5-yl]-biphenyl-4-yl}-cyclopropanecarboxylic acid]: the IC50 is below 300 nM.

Turning to `Cc1noc(-c2ccc(-c3ccc(C4(C(=O)O)CC4)cc3)cc2)c1/C=C/[S+]([O-])Cc1ccccc1` (single isomer, unassigned) [Compound 1-262, 1-(4′-{3-Methyl-4-[(E)-2-(phenylmethanesulfinyl)-vinyl]-isoxazol-5-yl}-biphenyl-4-yl)-cyclopropanecarboxylic acid], the IC50 was below 300 nM.

For the origin of these results see US9624182B2, “Compounds as lysophosphatidic acid receptor antagonists” (Amira Pharmaceuticals, Inc., priority 2009, dated 2017).
